Results published in patent US5187174A, “6'-deoxy-6'-halo-neplanocin A and its production” (Asahi Kasei Kogyo Kabushiki Kaisha, priority 1989, dated 1993).
In brackets after ≈: the same amount, converted by molar mass.

How the values were obtained:
[1] = Resistance to adenosine deaminase; assay type: in vitro ADME, calf; settings: bovine, pH 7.2, 25° C., read-out: Remaining Amount (%); for remaining at 0.5 h, 500 µM: 30 min.
Procedure: A solution 0.5 mM of each test sample is prepared by dissolving the test sample in 0.05M Tris-HCl buffer (pH 7.2). Adenosine deaminase (calf intestine, 400 U/ml glycerin, Boehringer 102091) is diluted ten times with 0.05M Tris-HCl buffer (pH 7.2) to prepare an adenosine deaminase solution.
0.5 ml of each sample solution is mixed with 10 μl of adenosine deaminase solution. The mixtures are allowed to stand in a water bath at 25° C., and 4 μl samples thereof are pipetted off after 1, 10, 20 and 30 minutes. The remaining sample is measured by HPLC under the following conditions:
Column: Licrosorb RP-18-5
Elution solvent: Control; 15% methanol
Elution speed: 1.0 ml/min.

L5178Y cells = assay: Growth inhibition activity against L5178Y cells; assay type: cell-based; settings: Mus musculus, 48 hours, 37° C.
Procedure: 1. Growth inhibition activity against L5178Y cells:
A solution of each test compound is prepared by dissolving or suspending the compound in RRMI 1640 medium containing 10% bovine serum by ultrasonication. A cell suspension of L5178Y cells, 1.1×10^4 cells/ml, each suspension having a volume of 1.8 ml, is added to each test tube. A solution (0.2 ml) of the test compound hereinabove is added thereto and the medium is tightly sealed and incubated at 37° C. for 48 hours. After incubation, the number of cells is measured using a Coulter counter and the growth ratio of the cells is determined.

cells = settings: in words; Ref. 1; cited from earlier work
adenosine deaminase = settings: in words; thought to occur, Ref. 1; cited from earlier work

| Compound | remaining at 10 min, 500 µM [1] [%] | remaining at 20 min, 500 µM [1] [%] | remaining at 0.5 h, 500 µM [1] [%] | IC50 (L5178Y cells) [µg/mL] | cytotoxic activity in vitro (cells) | conversion by adenosine deaminase in vivo (adenosine deaminase) |
| --- | --- | --- | --- | --- | --- | --- |
| Nc1ncnc2c1ncn2C1C=C(CBr)C(O)C1O (stereo not shown) [Compound (1) X = Br, 6'-deoxy-6'-bromoneplanocin A] | 98 | 97 | 97 | 0.2 (≈ 0.613 µM) | – | – |
| Nc1ncnc2c1ncn2C1C=C(CF)C(O)C1O (stereo not shown) [Compound (1) X = F, 6'-deoxy-6'-fluoroneplanocin A] | 99 | 98 | 98 | 1.1 (≈ 4.15 µM) | – | – |

Now from value to molecule, other results behind:

| remaining at 10 min, 500 µM [1] [%] | remaining at 20 min, 500 µM [1] [%] | remaining at 0.5 h, 500 µM [1] [%] | Compound | IC50 (L5178Y cells) [µg/mL] | cytotoxic activity in vitro (cells) | conversion by adenosine deaminase in vivo (adenosine deaminase) |
| --- | --- | --- | --- | --- | --- | --- |
| 101 | 99 | 102 | Nc1ncnc2c1ncn2C1C=C(CCl)C(O)C1O (stereo not shown) [Compound (1) X = Cl, 6'-deoxy-6'-chloroneplanocin A] | 0.3 (≈ 1.06 µM) | – | – |
| 97 | 96 | 96 | Nc1ncnc2c1ncn2C1C=C(CI)C(O)C1O (stereo not shown) [Compound (1) X = I, 6'-deoxy-6'-iodoneplanocin A] | 0.4 (≈ 1.07 µM) | – | – |
| 6 | 0.4 | 0 | Nc1ncnc2c1ncn2[C@@H]1C=C(CO)[C@@H](O)[C@H]1O [Neplanocin A] | 0.2 (≈ 0.76 µM) | has cytotoxic activity in vitro | rapid conversion to an inert deamination-type compound (neplanocin D) |
